# Experimental data from PubChem BioAssay (NCI).
#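 Results reflect a 48-hour exposure of cells in 96-well plates to compound at five concentrations. Abbreviation: GI50, concentration required for 50% inhibition of growth. At the TGI there is no net growth.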
# Assays:
# Assay in all cases: growth of human tumour cells (NCI), 48 h
# TK-10 renal = tested on: TK-10 renal
# ACHN renal = tested on: ACHN renal
# RXF 393 renal = tested on: RXF 393 renal
# BT-549 breast = tested on: BT-549 breast
# IGROV1 ovarian = tested on: IGROV1 ovarian
# NCI-H226 lung = tested on: NCI-H226 lung
# NCI-H522 lung = tested on: NCI-H522 lung
# HOP-92 NSCLC = tested on: HOP-92 NSCLC
# CCRF-CEM leukemia = tested on: CCRF-CEM leukemia
# SN12C renal = tested on: SN12C renal
# DU-145 prostate = tested on: DU-145 prostate
# K-562 leukemia = tested on: K-562 leukemia
# SNB-75 CNS = tested on: SNB-75 CNS
# MCF7 breast = tested on: MCF7 breast
# SR leukemia = tested on: SR leukemia
# A549 NSCLC = tested on: A549 NSCLC
# SF-268 CNS = tested on: SF-268 CNS
# U251 CNS = tested on: U251 CNS
# HOP-62 NSCLC = tested on: HOP-62 NSCLC
# SK-OV-3 ovarian = tested on: SK-OV-3 ovarian
# NCI-H460 lung = tested on: NCI-H460 lung
# LOX IMVI melanoma = tested on: LOX IMVI melanoma
# M14 melanoma = tested on: M14 melanoma
# HCT-116 colon = tested on: HCT-116 colon
# SNB-19 CNS = tested on: SNB-19 CNS
# HCC-2998 colon = tested on: HCC-2998 colon
# SK-MEL-2 melanoma = tested on: SK-MEL-2 melanoma
# SF-295 CNS = tested on: SF-295 CNS
# OVCAR-8 ovarian = tested on: OVCAR-8 ovarian
# MALME-3M melanoma = tested on: MALME-3M melanoma
# T-47D breast = tested on: T-47D breast
# HL-60(TB) leukemia = tested on: HL-60(TB) leukemia
# PC-3 prostate = tested on: PC-3 prostate
# MDA-MB-231 breast = tested on: MDA-MB-231 breast
# OVCAR-5 ovarian = tested on: OVCAR-5 ovarian
# HS 578T breast = tested on: HS 578T breast
# EKVX NSCLC = tested on: EKVX NSCLC
# COLO 205 colon = tested on: COLO 205 colon
# UO-31 renal = tested on: UO-31 renal
# NCI/ADR-RES ovarian = tested on: NCI/ADR-RES ovarian
# HCT-15 colon = tested on: HCT-15 colon
# UACC-62 melanoma = tested on: UACC-62 melanoma
# SW-620 colon = tested on: SW-620 colon
# SF-539 CNS = tested on: SF-539 CNS
# HT29 colon = tested on: HT29 colon
# SK-MEL-5 melanoma = tested on: SK-MEL-5 melanoma
# A498 renal = tested on: A498 renal
# RPMI-8226 leukemia = tested on: RPMI-8226 leukemia
# SK-MEL-28 melanoma = tested on: SK-MEL-28 melanoma
# MOLT-4 leukemia = tested on: MOLT-4 leukemia
# OVCAR-4 ovarian = tested on: OVCAR-4 ovarian
# 786-0 renal = tested on: 786-0 renal
# CAKI-1 renal = tested on: CAKI-1 renal
# KM12 colon = tested on: KM12 colon
# NCI-H23 lung = tested on: NCI-H23 lung
smiles,measurement,setting,value
COc1ccc(C2CC(=O)c3c(O)c(OC)c(OC)c(OC)c3O2)c(O)c1 (stereo not given),GI50,TK-10 renal,4.96 µM
same,TGI,TK-10 renal,49 µM
same,GI50,ACHN renal,1.2 µM
same,TGI,ACHN renal,58.2 µM
same,GI50,RXF 393 renal,0.243 µM
same,TGI,RXF 393 renal,25.5 µM
same,GI50,BT-549 breast,0.221 µM
same,TGI,BT-549 breast,20.5 µM
same,GI50,IGROV1 ovarian,0.535 µM
same,TGI,IGROV1 ovarian,39.6 µM
same,GI50,NCI-H226 lung,4.49 µM
same,TGI,NCI-H226 lung,24.7 µM
same,GI50,NCI-H522 lung,0.0326 µM
same,TGI,NCI-H522 lung,0.188 µM
same,GI50,HOP-92 NSCLC,0.0574 µM
same,TGI,HOP-92 NSCLC,13.9 µM
same,GI50,CCRF-CEM leukemia,0.134 µM
same,TGI,CCRF-CEM leukemia,31.5 µM
same,GI50,SN12C renal,1.23 µM
same,TGI,SN12C renal,70.4 µM
same,GI50,DU-145 prostate,0.25 µM
same,TGI,DU-145 prostate,15.9 µM
same,GI50,K-562 leukemia,0.0378 µM
same,TGI,K-562 leukemia,26.2 µM
same,GI50,SNB-75 CNS,0.0625 µM
same,TGI,SNB-75 CNS,0.858 µM
same,GI50,MCF7 breast,0.0462 µM
same,TGI,MCF7 breast,15.7 µM
same,GI50,SR leukemia,0.0582 µM
same,TGI,SR leukemia,27 µM
same,GI50,A549 NSCLC,0.41 µM
same,TGI,A549 NSCLC,28.8 µM
same,GI50,SF-268 CNS,0.534 µM
same,TGI,SF-268 CNS,38.3 µM
same,GI50,U251 CNS,0.0985 µM
same,TGI,U251 CNS,36.1 µM
same,GI50,HOP-62 NSCLC,0.211 µM
same,TGI,HOP-62 NSCLC,28.2 µM
same,GI50,SK-OV-3 ovarian,0.308 µM
same,TGI,SK-OV-3 ovarian,24.8 µM
same,GI50,NCI-H460 lung,0.0637 µM
same,TGI,NCI-H460 lung,10.9 µM
same,GI50,LOX IMVI melanoma,0.432 µM
same,TGI,LOX IMVI melanoma,19.2 µM
same,GI50,M14 melanoma,0.0834 µM
same,TGI,M14 melanoma,15.4 µM
same,GI50,HCT-116 colon,0.053 µM
same,TGI,HCT-116 colon,60.9 µM
same,GI50,SNB-19 CNS,0.384 µM
same,TGI,SNB-19 CNS,> 100 µM
same,GI50,HCC-2998 colon,0.761 µM
same,TGI,HCC-2998 colon,27.2 µM
same,GI50,SK-MEL-2 melanoma,0.0809 µM
same,TGI,SK-MEL-2 melanoma,23.4 µM
same,GI50,SF-295 CNS,0.349 µM
same,TGI,SF-295 CNS,14.6 µM
same,GI50,OVCAR-8 ovarian,0.294 µM
same,TGI,OVCAR-8 ovarian,40.9 µM
same,GI50,MALME-3M melanoma,13.1 µM
same,TGI,MALME-3M melanoma,26.7 µM
same,GI50,T-47D breast,0.113 µM
same,TGI,T-47D breast,24.6 µM
same,GI50,HL-60(TB) leukemia,0.0459 µM
same,TGI,HL-60(TB) leukemia,0.632 µM
same,GI50,PC-3 prostate,0.0707 µM
same,TGI,PC-3 prostate,20.8 µM
same,GI50,MDA-MB-231 breast,0.997 µM
same,TGI,MDA-MB-231 breast,31.7 µM
same,GI50,OVCAR-5 ovarian,5.57 µM
same,TGI,OVCAR-5 ovarian,93.4 µM
same,GI50,HS 578T breast,0.201 µM
same,TGI,HS 578T breast,48.7 µM
same,GI50,EKVX NSCLC,0.232 µM
same,TGI,EKVX NSCLC,88.8 µM
same,GI50,COLO 205 colon,4.43 µM
same,TGI,COLO 205 colon,18 µM
same,GI50,UO-31 renal,1.09 µM
same,TGI,UO-31 renal,21.4 µM
same,GI50,NCI/ADR-RES ovarian,0.0565 µM
same,TGI,NCI/ADR-RES ovarian,20.6 µM
same,GI50,HCT-15 colon,0.0498 µM
same,TGI,HCT-15 colon,17.8 µM
same,GI50,UACC-62 melanoma,0.0566 µM
same,TGI,UACC-62 melanoma,20.2 µM
same,GI50,SW-620 colon,0.0484 µM
same,TGI,SW-620 colon,21.4 µM
same,GI50,SF-539 CNS,0.14 µM
same,TGI,SF-539 CNS,9.39 µM
same,GI50,HT29 colon,2.64 µM
same,TGI,HT29 colon,> 100 µM
same,GI50,SK-MEL-5 melanoma,0.0673 µM
same,TGI,SK-MEL-5 melanoma,2.03 µM
same,GI50,A498 renal,0.126 µM
same,TGI,A498 renal,0.984 µM
same,GI50,RPMI-8226 leukemia,0.372 µM
same,TGI,RPMI-8226 leukemia,18.4 µM
same,GI50,SK-MEL-28 melanoma,10.5 µM
same,TGI,SK-MEL-28 melanoma,25.6 µM
same,GI50,MOLT-4 leukemia,1.65 µM
same,TGI,MOLT-4 leukemia,29.6 µM
same,GI50,OVCAR-4 ovarian,1.18 µM
same,TGI,OVCAR-4 ovarian,66.9 µM
same,GI50,786-0 renal,0.839 µM
same,TGI,786-0 renal,> 100 µM
same,GI50,CAKI-1 renal,0.781 µM
same,TGI,CAKI-1 renal,60.4 µM
same,GI50,KM12 colon,0.0693 µM
same,TGI,KM12 colon,15.7 µM
same,GI50,NCI-H23 lung,0.392 µM
same,TGI,NCI-H23 lung,18.6 µM
